Read-outs that look alike come from different tables or passages of the source.
Legend:
Assay in all cases: biochemical
Set-up in all cases: KINOMEscan scanMAX competition binding, DNA-tagged kinases, qPCR read-out, percent control at 300 nM
DDR2 = molecular target: T1, DDR2 (Homo sapiens, UniProt Q16832)
T1 sequence (Q16832 1-855): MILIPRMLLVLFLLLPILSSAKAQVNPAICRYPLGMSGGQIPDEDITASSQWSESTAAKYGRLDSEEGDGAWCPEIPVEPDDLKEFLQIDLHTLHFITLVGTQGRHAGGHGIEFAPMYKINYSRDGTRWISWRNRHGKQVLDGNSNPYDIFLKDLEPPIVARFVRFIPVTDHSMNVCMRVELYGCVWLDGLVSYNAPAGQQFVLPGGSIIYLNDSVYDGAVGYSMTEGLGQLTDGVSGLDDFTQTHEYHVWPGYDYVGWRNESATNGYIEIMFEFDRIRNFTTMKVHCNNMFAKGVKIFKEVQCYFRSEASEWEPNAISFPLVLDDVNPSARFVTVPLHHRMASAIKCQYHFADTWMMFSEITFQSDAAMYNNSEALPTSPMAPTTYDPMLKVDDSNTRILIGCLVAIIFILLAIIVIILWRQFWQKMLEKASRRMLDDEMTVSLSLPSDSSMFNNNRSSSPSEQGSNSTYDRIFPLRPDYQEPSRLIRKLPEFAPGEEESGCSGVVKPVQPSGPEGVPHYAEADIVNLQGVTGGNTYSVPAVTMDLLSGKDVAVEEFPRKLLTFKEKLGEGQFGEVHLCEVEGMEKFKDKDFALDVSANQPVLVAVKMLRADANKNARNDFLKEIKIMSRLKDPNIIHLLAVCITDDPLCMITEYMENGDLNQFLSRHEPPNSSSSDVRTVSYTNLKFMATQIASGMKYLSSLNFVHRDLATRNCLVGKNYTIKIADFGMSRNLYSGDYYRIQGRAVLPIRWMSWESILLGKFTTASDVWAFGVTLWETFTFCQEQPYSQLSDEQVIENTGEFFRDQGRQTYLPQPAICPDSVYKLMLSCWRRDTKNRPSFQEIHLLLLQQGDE

AXL = molecular target: T2, AXL (Homo sapiens, UniProt P30530)
T2 sequence (P30530 1-894): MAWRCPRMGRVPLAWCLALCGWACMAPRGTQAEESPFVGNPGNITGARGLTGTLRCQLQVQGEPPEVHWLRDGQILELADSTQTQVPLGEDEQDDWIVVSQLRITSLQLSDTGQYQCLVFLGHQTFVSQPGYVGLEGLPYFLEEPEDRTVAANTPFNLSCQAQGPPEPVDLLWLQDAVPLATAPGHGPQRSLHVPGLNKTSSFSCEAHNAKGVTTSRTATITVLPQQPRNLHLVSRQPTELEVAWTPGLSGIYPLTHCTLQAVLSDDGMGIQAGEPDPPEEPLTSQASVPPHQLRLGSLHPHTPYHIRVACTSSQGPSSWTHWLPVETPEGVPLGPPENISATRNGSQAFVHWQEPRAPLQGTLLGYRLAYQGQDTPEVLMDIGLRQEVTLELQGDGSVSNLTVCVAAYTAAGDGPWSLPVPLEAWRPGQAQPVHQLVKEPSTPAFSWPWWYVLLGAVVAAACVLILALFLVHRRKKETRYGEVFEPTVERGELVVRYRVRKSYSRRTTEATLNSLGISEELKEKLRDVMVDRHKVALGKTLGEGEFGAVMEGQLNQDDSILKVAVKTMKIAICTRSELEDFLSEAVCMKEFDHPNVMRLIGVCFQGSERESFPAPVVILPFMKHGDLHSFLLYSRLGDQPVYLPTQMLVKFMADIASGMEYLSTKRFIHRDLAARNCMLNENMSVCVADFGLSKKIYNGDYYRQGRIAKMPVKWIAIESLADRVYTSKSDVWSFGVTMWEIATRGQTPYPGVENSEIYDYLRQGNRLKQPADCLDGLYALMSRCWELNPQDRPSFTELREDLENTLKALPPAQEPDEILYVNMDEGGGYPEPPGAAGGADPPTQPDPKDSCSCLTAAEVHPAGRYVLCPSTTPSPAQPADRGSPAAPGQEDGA

AURKA = molecular target: T3, AURKA (Homo sapiens, UniProt O14965)
T3 sequence (O14965 1-403): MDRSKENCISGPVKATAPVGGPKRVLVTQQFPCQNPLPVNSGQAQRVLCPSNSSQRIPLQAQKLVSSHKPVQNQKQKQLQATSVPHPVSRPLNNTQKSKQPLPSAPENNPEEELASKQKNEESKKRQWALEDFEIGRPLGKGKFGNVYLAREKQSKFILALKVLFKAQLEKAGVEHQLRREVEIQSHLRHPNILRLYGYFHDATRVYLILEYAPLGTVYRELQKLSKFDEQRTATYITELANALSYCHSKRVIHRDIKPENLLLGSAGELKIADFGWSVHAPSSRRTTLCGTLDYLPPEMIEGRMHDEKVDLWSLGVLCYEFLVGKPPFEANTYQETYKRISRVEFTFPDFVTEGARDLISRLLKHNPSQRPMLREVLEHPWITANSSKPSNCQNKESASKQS

CLK2 = CLK2 (Homo sapiens, UniProt P49760)
YANK2 = molecular target: T4, YANK2 (Homo sapiens, UniProt Q9NY57)
T4 construct: gene STK32B

NEK4 = NEK4 (Homo sapiens, UniProt P51957)
DAPK2 = DAPK2 (Homo sapiens, UniProt Q9UIK4)
[1] = read-out: Percent control / Acalabrutinib
[2] = read-out: Percent control / Ibrutinib
[3] = read-out: Percent control / Tirabrutinib
[4] = read-out: Percent control / Zanubrutinib

T4 sequence (Q9NY57 whole entry): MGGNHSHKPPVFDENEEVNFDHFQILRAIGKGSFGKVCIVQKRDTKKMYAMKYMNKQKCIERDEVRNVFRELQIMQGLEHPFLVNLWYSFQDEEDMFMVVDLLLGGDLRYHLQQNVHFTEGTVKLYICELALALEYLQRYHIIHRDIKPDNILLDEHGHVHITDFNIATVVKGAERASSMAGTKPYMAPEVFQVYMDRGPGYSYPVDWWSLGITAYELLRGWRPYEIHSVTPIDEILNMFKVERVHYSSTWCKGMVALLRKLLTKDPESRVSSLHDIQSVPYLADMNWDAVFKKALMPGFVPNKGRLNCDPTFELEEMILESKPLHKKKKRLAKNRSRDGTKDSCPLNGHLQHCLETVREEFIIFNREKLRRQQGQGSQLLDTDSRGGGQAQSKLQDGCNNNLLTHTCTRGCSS
Chain of DAPK2 (Q9UIK4 whole entry): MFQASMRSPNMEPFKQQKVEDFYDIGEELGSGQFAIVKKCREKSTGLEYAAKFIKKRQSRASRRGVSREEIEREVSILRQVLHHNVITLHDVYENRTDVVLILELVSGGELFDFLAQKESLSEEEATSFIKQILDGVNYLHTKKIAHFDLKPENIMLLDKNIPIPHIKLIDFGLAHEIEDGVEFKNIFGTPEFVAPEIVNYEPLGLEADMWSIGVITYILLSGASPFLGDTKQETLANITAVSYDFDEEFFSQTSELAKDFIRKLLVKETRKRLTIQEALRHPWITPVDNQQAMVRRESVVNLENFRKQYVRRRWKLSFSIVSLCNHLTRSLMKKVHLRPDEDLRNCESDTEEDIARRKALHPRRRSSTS
Chain of NEK4 (P51957 whole entry): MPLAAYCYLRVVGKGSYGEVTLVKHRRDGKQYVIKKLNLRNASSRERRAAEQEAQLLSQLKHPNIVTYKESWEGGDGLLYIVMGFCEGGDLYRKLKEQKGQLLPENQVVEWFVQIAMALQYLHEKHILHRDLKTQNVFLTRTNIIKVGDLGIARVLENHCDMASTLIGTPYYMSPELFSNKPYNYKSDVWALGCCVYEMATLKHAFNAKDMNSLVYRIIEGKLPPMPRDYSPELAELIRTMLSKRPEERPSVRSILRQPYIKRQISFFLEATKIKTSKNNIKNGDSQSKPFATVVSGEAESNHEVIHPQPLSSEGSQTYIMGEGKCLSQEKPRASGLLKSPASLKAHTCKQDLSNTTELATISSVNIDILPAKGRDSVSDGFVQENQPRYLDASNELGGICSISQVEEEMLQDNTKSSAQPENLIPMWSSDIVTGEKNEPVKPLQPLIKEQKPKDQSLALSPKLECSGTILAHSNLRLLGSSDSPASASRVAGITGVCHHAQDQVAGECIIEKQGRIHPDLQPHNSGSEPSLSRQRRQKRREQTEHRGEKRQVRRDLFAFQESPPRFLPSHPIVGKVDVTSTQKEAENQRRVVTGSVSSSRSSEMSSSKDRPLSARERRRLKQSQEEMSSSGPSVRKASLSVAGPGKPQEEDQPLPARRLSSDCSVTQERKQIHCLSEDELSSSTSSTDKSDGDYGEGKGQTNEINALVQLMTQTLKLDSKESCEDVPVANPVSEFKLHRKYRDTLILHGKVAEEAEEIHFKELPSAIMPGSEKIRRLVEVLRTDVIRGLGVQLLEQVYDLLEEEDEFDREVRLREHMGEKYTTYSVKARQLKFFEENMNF
Chain of CLK2 (P49760 whole entry): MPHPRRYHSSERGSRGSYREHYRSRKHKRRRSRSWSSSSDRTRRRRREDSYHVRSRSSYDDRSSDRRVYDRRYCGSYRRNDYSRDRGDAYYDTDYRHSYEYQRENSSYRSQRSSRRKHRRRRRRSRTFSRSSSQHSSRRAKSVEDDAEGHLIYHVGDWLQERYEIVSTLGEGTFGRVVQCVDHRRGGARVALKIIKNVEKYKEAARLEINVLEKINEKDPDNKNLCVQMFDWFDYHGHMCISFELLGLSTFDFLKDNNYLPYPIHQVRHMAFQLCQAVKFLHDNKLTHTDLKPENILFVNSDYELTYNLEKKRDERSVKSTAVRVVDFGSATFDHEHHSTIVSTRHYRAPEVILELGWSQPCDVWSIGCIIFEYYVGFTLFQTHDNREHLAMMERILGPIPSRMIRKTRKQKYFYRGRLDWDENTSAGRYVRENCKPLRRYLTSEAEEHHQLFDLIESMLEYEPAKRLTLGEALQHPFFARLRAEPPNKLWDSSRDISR

## CC#CC(=O)N1CCC[C@H]1c1nc(-c2ccc(C(=O)Nc3ccccn3)cc2)c2c(N)nccn12 [Acalabrutinib]
DDR2; [1]
  remaining binding at 0.3 µM: 95%
AXL; [1]
  remaining binding at 0.3 µM: 88%
AURKA; [1]
  remaining binding at 0.3 µM: 96%
CLK2; [1]
  remaining binding at 0.3 µM: 99%
YANK2; [1]
  remaining binding at 0.3 µM: 89%
NEK4; [1]
  remaining binding at 0.3 µM: 88%

## C=CC(=O)N1CCC[C@@H](n2nc(-c3ccc(Oc4ccccc4)cc3)c3c(N)ncnc32)C1 [Ibrutinib]
DDR2; [2]
  remaining binding at 0.3 µM: 80%
AXL; [2]
  remaining binding at 0.3 µM: 85%
AURKA; [2]
  remaining binding at 0.3 µM: 94%
YANK2; [2]
  remaining binding at 0.3 µM: 76%
DAPK2; [2]
  remaining binding at 0.3 µM: 79%

## CC#CC(=O)N1CC[C@@H](n2c(=O)n(-c3ccc(Oc4ccccc4)cc3)c3c(N)ncnc32)C1 [Tirabrutinib]
DDR2; [3]
  remaining binding at 0.3 µM: 88%
CLK2; [3]
  remaining binding at 0.3 µM: 94%
YANK2; [3]
  remaining binding at 0.3 µM: 87%
NEK4; [3]
  remaining binding at 0.3 µM: 99%
DAPK2; [3]
  remaining binding at 0.3 µM: 88%

## C=CC(=O)N1CCC([C@@H]2CCNc3c(C(N)=O)c(-c4ccc(Oc5ccccc5)cc4)nn32)CC1 [Zanubrutinib]
AXL; [4]
  remaining binding at 0.3 µM: 91%
AURKA; [4]
  remaining binding at 0.3 µM: 92%
CLK2; [4]
  remaining binding at 0.3 µM: 87%
YANK2; [4]
  remaining binding at 0.3 µM: 96%
NEK4; [4]
  remaining binding at 0.3 µM: 100%
DAPK2; [4]
  remaining binding at 0.3 µM: 91%

— publication PMC10004634 (PLOS ONE, 2023)
